Target: T1, Human M4 (Homo sapiens, UniProt P08173)
T1 construct: expressed in transfected cells
T1 sequence (P08173 1-479): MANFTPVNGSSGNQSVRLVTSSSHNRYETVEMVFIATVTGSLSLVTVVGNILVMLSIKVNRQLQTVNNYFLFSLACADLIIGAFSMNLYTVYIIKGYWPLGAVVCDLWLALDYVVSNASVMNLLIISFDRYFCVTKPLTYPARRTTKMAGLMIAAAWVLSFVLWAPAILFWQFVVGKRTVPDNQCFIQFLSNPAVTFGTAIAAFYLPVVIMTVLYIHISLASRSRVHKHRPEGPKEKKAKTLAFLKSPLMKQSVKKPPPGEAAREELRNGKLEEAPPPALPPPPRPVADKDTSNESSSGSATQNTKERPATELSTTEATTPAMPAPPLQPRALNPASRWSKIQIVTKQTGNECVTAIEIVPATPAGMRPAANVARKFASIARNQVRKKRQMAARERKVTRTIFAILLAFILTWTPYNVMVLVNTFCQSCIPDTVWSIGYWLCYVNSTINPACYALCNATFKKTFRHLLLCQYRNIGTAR
Assay: mAChR M4 cell-based functional assay (calcium flux, PAM mode)
Details: hM4-Gqi5 CHO-K1 cells; for Emax at 30 µM: CHO-K1, % ACh maximum at 30 μM; for EC50: concentration-dependent increase in the EC20 acetylcholine response
Experimental: Human and rat M4 cDNAs, along with the chimeric G protein Gqi5, were transfected into Chinese hamster ovary (CHO-K1) cells purchased from the American Type Culture Collection using Lipofectamine2000. hM4-Gqi5 cells were grown in Ham's F-12 medium containing 10% heat-inactivated fetal bovine serum (FBS), 20 mM HEPES, 50 μg/mL G418 sulfate, and 500 μg/mL Hygromycin B. rM4-Gqi5 cells were grown in DMEM containing 10% heat-inactivated FBS, 20 mM HEPES, 400 μg/mL G418 sulfate, and 500 μg/mL Hygromycin B.
For high throughput measurement of agonist-evoked increases in intracellular calcium, CHO-K1 cells stably expressing muscarinic receptors were plated in growth medium lacking G418 and hygromycin at 15,000 cells/20 μL/well in Greiner 384-well black-walled, tissue culture (TC)-treated, clear-bottom plates (VWR). Cells were incubated overnight at 37° C. and 5% CO2. The next day, cells were washed using an ELX 405 (BioTek) with assay buffer; the final volume was then aspirated to 20 μL. Next, 20 μL of a 2.3 μM stock of Fluo-4/acetoxymethyl ester (Invitrogen, Carlsbad, CA), prepared as a 2.3 mM stock in DMSO and mixed in a 1:1 ratio with 10% (w/v) Pluronic F-127 and diluted in assay buffer, was added to the wells and the cell plates were incubated for 50 min at 37° C. and 5% CO2. Dye was removed by washing with the ELX 405 and the final volume was aspirated to 20 μL. Compound master plates were formatted in an 11 point concentration-response curve (CRC) format (1:3 dilutions) in 100% DMSO with a starting concentration of 10 mM using a BRAVO liquid handler (Agilent). Test compound CRCs were then transferred to daughter plates (240 nL) using the Echo acoustic plate reformatter (Labcyte, Sunnyvale, CA) and then diluted into assay buffer (40 μL) to a 2× stock using a Thermo Fisher Combi (Thermo Fisher Scientific, Waltham, MA).
Calcium flux was measured using the Functional Drug Screening System (FDSS) 6000 or 7000 (Hamamatsu Corporation, Tokyo, Japan) as an increase in the fluorescent static ratio. Compounds were applied to cells (20 μL, 2×) using the automated system of the FDSS at 2-4 seconds into the protocol and the data were collected at 1 Hz. At 144 seconds, 10 μL of an EC20 concentration of the muscarinic receptor agonist acetylcholine was added (5×), followed by the addition of 12 μL of an EC80 concentration of acetylcholine at the 230 second time point (5×). Agonist activity was analyzed as a concentration-dependent increase in calcium mobilization upon compound addition. Positive allosteric modulator activity was analyzed as a concentration-dependent increase in the EC20 acetylcholine response. Antagonist activity was analyzed as a concentration-dependent decrease in the EC80 acetylcholine response. Concentration-response curves were generated using a four-parameter logistical equation in XLFit curve fitting software (IDBS, Bridgewater, NJ) for Excel (Microsoft, Redmond, WA) or Prism (GraphPad Software, Inc., San Diego, CA).
Compounds were synthesized as described above. Activity (EC50 and Emax) was determined in the mAChR M4 cell-based functional assay as described above and the data are shown in Table 2. The compound number corresponds to the compound numbers used in Examples 1 to 11 and Tables 1.

Structure (SMILES)	Emax at 30 µM [%]	EC50 [nM]
Cc1cc2nccc(=O)n2nc1N1CC[C@@H](Oc2ccc3c(c2)OCCO3)[C@@H](C)C1 (single isomer, unassigned) [Compound 113, 7-((3R,4S) or (3S,4R))-4-(2,3-dihydrobenzo[b][1,4]dioxin-6-yl)oxy)-3-methylpiperidin-1-yl)-8-methyl-4H-pyrimido[1,2-b]pyridazin-4-one]	96	110
Cc1cc2nccc(=O)n2nc1N1CC[C@@H](Oc2ccc3c(c2)OCCO3)[C@H](C)C1 (single isomer, unassigned) [Compound 114, 7-((3R,4R) or (3S,4S))-4-((2,3-dihydrobenzo[b][1,4]dioxin-6-yl)oxy)-3-methylpiperidin-1-yl)-8-methyl-4H-pyrimido[1,2-b]pyridazin-4-one]	102	160
Cc1cc2nccc(=O)n2nc1N1CC[C@H](Oc2ccc3c(c2)OCCO3)[C@@H](C)C1 (single isomer, unassigned) [Compound 115, 7-((3S,4S) or (3R, 4R))-4-((2,3-dihydrobenzo[b][1,4]dioxin-6-yl)oxy)-3-methylpiperidin-1-yl)-8-methyl-4H-pyrimido[1,2-b]pyridazin-4-one]	78	1560
Cc1cc2nccc(=O)n2nc1N1CC[C@@H](Oc2ccc3c(c2)OCCO3)C[C@H]1C (stereo in doubt) [Compound 106, 7-((2R,4R)-4-((2,3-dihydrobenzo[b][1,4]dioxin-6-yl)oxy)-2-methylpiperidin-1-yl)-8-methyl-4H-pyrimido[1,2-b]pyridazin-4-one]	81	818
Cc1cc2nccc(=O)n2nc1N1CC[C@H](Oc2ccc3c(c2)OCCO3)C[C@H]1C (stereo in doubt) [Compound 107, 7-((2R,4S)-4-((2,3-dihydrobenzo[b][1,4]dioxin-6-yl)oxy)-2-methylpiperidin-1-yl)-8-methyl-4H-pyrimido[1,2-b]pyridazin-4-one]	55	–
[2H]C1([2H])Oc2ccc(OC3CCN(c4nn5c(=O)ccnc5cc4C)CC3)cc2OC1([2H])[2H] [Compound 1, 7-(4-((2,3-Dihydrobenzo[b][1,4]dioxin-6-yl-2,2,3,3-d4)oxy)piperidin-1-yl)-8-methyl-4H-pyrimido[1,2-b]pyridazin-4-one]	91	130
[2H]C1([2H])Oc2ccc(OC3CCN(c4nn5c(=O)ccnc5c(C)c4C)CC3)cc2OC1([2H])[2H] [Compound 2, 7-(4-((2,3-Dihydrobenzo[b][1,4]dioxin-6-yl-2,2,3,3-d4)oxy)piperidin-1-yl)-8,9-dimethyl-4H-pyrimido[1,2-b]pyridazin-4-one]	100	26
[2H]C1([2H])Oc2ccc(OC3CCN(c4nn5c(=O)cc(C)nc5cc4C)CC3)cc2OC1([2H])[2H] [Compound 3, 7-(4-((2,3-Dihydrobenzo[b][1,4]dioxin-6-yl-2,2,3,3-d4)oxy)piperidin-1-yl)-2,8-dimethyl-4H-pyrimido[1,2-b]pyridazin-4-one]	86	30
[2H]C1([2H])Oc2ccc(OC3CCN(c4nn5c(=O)c(C)c(C)nc5cc4C)CC3)cc2OC1([2H])[2H] [Compound 4, 7-(4-((2,3-Dihydrobenzo[b][1,4]dioxin-6-yl-2,2,3,3-d4)oxy)piperidin-1-yl)-2,3,8-trimethyl-4H-pyrimido[1,2-b]pyridazin-4-one]	90	36
[2H]C1([2H])Oc2ccc(OC3CCN(c4nn5c(=O)cc(C)nc5c(C)c4C)CC3)cc2OC1([2H])[2H] [Compound 5, 7-(4-((2,3-Dihydrobenzo[b][1,4]dioxin-6-yl-2,2,3,3-d4)oxy)piperidin-1-yl)-2,8,9-trimethyl-4H-pyrimido[1,2-b]pyridazin-4-one]	81	36
[2H]C1([2H])Oc2ccc(OC3CCN(c4nn5c(=O)cc(C(F)(F)F)nc5cc4C)CC3)cc2OC1([2H])[2H] [Compound 6, 7-(4-((2,3-Dihydrobenzo[b][1,4]dioxin-6-yl-2,2,3,3-d4)oxy)piperidin-1-yl)-8-methyl-2-(trifluoromethyl)-4H-pyrimido[1,2-b]pyridazin-4-one]	91	16
[2H]C1([2H])Oc2ccc(OC3CCN(c4nn5c(=O)cc(C(F)(F)F)nc5c(C)c4C)CC3)cc2OC1([2H])[2H] [Compound 7, 7-(4-((2,3-Dihydrobenzo[b][1,4]dioxin-6-yl-2,2,3,3-d4)oxy)piperidin-1-yl)-8,9-dimethyl-2-(trifluoromethyl)-4H-pyrimido[1,2-b]pyridazin-4-one]	93	70
[2H]C1([2H])Oc2ccc(OC3CCN(c4nn5c(=O)cc(C(F)F)nc5cc4C)CC3)cc2OC1([2H])[2H] [Compound 8, 2-(Difluoromethyl)-7-(4-((2,3-dihydrobenzo[b][1,4]dioxin-6-yl-2,2,3,3-d4)oxy)piperidin-1-yl)-8-methyl-4H-pyrimido[1,2-b]pyridazin-4-one]	76	19
[2H]C1([2H])Oc2ccc(OC3CCN(c4nn5c(=O)cc(C(F)F)nc5c(C)c4C)CC3)cc2OC1([2H])[2H] [Compound 9, 2-(Difluoromethyl)-7-(4-((2,3-dihydrobenzo[b][1,4]dioxin-6-yl-2,2,3,3-d4)oxy)piperidin-1-yl)-8,9-dimethyl-4H-pyrimido[1,2-b]pyridazin-4-one]	96	28
[2H]C1([2H])Oc2ccc(OC3CCN(c4nn5c(=O)cc(C6CC6)nc5cc4C)CC3)cc2OC1([2H])[2H] [Compound 10, 2-Cyclopropyl-7-(4-((2,3-dihydrobenzo[b][1,4]dioxin-6-yl-2,2,3,3-d4)oxy)piperidin-1-yl)-8-methyl-4H-pyrimido[1,2-b]pyridazin-4-one]	73	87
CCc1cc(=O)n2nc(N3CCC(Oc4ccc5c(c4)OCCO5)CC3)c(C)c(C)c2n1 [Compound 11, 7-(4-((2,3-Dihydrobenzo[b][1,4]dioxin-6-yl-2,2,3,3-d4)oxy)piperidin-1-yl)-2-ethyl-8,9-dimethyl-4H-pyrimido[1,2-b]pyridazin-4-one]	99	49
Cc1c(N2CCC(Oc3ccc4c(c3)OCCO4)CC2)nn2c(=O)cc(C(C)C)nc2c1C [Compound 12, 7-(4-((2,3-Dihydrobenzo[b][1,4]dioxin-6-yl)oxy)piperidin-1-yl)-2-isopropyl-8,9-dimethyl-4H-pyrimido[1,2-b]pyridazin-4-one]	103	59
COCc1cc(=O)n2nc(N3CCC(Oc4ccc5c(c4)OCCO5)CC3)c(C)c(C)c2n1 [Compound 13, 7-(4-((2,3-Dihydrobenzo[b][1,4]dioxin-6-yl)oxy)piperidin-1-yl)-2-(methoxymethyl)-8,9-dimethyl-4H-pyrimido[1,2-b]pyridazin-4-one]	95	22
[2H]C1([2H])Oc2ccc(OC3CCN(c4nn5c(=O)cc(COC)nc5cc4C)CC3)cc2OC1([2H])[2H] [Compound 14, 7-(4-((2,3-Dihydrobenzo[b][1,4]dioxin-6-yl-2,2,3,3-d4)oxy)piperidin-1-yl)-2-(methoxymethyl)-8-methyl-4H-pyrimido[1,2-b]pyridazin-4-one]	101	22
